Assay results taken from paper PMC7037732, “Synthesis of Combretastatin A-4 and 3′-Aminocombretastatin A-4 derivatives with Aminoacid Containing Pendants and Study of their Interaction with Tubulin and as Downregulators of the VEGF, hTERT and c-Myc Gene Expression” (Molecules, 2020).

Experiments:
[1] = tested on: MCF-7 (breast adenocarcinoma); assay: Inhibition of cell proliferation (MTT), MCF-7; type: cell-based, human; conditions: Homo sapiens, 48 h of treatment (footnote), average ±SD of three experiments
From the text: (§1) The ability of the synthetic compounds to inhibit cell proliferation was established by means of their IC50 values towards the tumor cell lines HT-29 (human colon adenocarcinoma), MCF-7 (breast adenocarcinoma) and A-549 (human pulmonary adenocarcinoma), as well as towards the nontumor cell line HEK-293 (human embryonic kidney cells). Results for compounds derived from CA-4 are presented in Table 1, along with the calculated selectivity indexes SIA (for HT-29 cell line), SIB (for MCF-7 cell line) and SIc (for A-549 cell line), obtained by dividing the IC50 values of the nontumor cell line (HEK-293) by those of the corresponding tumor cell line. The higher the SI index, the higher the therapeutic safety margin.
(§2) Cell culture media were purchased from Gibco (Grand Island, NY, USA). Fetal bovine serum (FBS) was a product of Harlan-Seralab (Belton, U.K.). Supplements and other chemicals not listed in this section were obtained from Sigma Chemical Co. (St. Louis, MO, USA). Plastics for cell culture were supplied by Thermo Fischer Scientific Inc., Madrid, Spain. All tested compounds were dissolved in DMSO at a concentration of 10 μg/mL and stored at −20 °C until use. HT-29, MCF-7, A-549 and HEK-293 cell lines were maintained in a Dulbecco’s modified Eagle’s medium (DMEM) containing glucose (1 g/L), glutamine (2 mM), penicillin (50 IU/mL), streptomycin (50 μg/mL) and amphotericin B (1.25 μg/mL), supplemented with 10% FBS. Cells from human non-small lung carcinoma (clone A549; ATCC n°: CCL2, MD, USA) were routinely grown at 37 °C in a humidified atmosphere of 5% CO2. Cells were maintained in a standard medium composed of RPMI 1640 (Lonza, Group Ltd., Basel, Switzerland), supplemented with 10% fetal bovine serum (FBS), 2 mM L-glutamine and 1% penicillin and streptomycin (Invitrogen). Cells were free from mycoplasma as determined by MycoAlert tests (Lonza, Group Ltd., Basel, Switzerland).
(§3) A total of 5 × 10^3 HT-29, MCF-7 or HEK-293 cells in a total volume of 100 μL of their respective growth media were incubated with serial dilutions of the tested compounds. The 3-(4,5-dimethylthiazol-2-yl)-2,5-diphenyltetrazolium bromide (MTT; Sigma Chemical Co.) dye reduction assay in a 96-well microplate was used, as previously described. […] The resulting formazan was dissolved in 150 μL of 0.04 N HCl/2-propanol and read at 550 nm. All determinations were carried out in triplicate.

[2] = tested on: HEK-293 (human embryonic kidney cells); assay: Inhibition of cell proliferation (MTT), nontumor HEK-293; type: cell-based; conditions: Homo sapiens, 48 h of treatment (footnote), average ±SD of three experiments
From the text: as §1, §2, §3

[3] = tested on: purified tubulin; assay: Critical concentration (CrC) for the assembly of purified tubulin in GAB; type: biochemical; conditions: compound 27.5 μM, tubulin 25 μM, glycerol (GAB) and GTP assembly buffer; control 7.9 ± 1.2
Procedure: The effect on the self-assembly of tubulin was determined by measuring the critical concentration (CrC).

[4] = tested on: HT-29 (human colon adenocarcinoma); assay: Inhibition of cell proliferation (MTT), HT-29; type: cell-based; conditions: Homo sapiens, 48 h of treatment (footnote), average ±SD of three experiments
From the text: as §1, §2, §3

[5] = tested on: A-549 cells; assay: Cell cycle distribution by flow cytometry; type: cell-based, human; conditions: A-549, 24 h
Procedure: The effects of some CA-4 derivatives on the cell cycle were evaluated in A-549 cells.
The effects of some AmCA-4 derivatives on the cell cycle were also evaluated in A-549 cells.
The supernatant and trypsinated cells were harvested and then centrifuged (1200 rpm, 5 min, 4 °C). The cell pellet was resuspended in 1 mL of cold 70% ethanol for 30 min at −20 °C. Cells were centrifuged (2000 rpm, 5 min, 4 °C) to remove ethanol, and then the cell pellet was resuspended in the staining mix containing 50 µg/mL propidium iodide (Molecular Probes, France) and 100 µg/mL RNAse A (Sigma, France) in PBS for 20 min at room temperature in darkness. Samples were analyzed on a Becton Dickinson FACScan flow cytometer using the CellQuest software, which was also used to determine the percentage of cells in the G2/M phases of the cell cycle. PI was excited at 488 nm, and fluorescence analyzed at 620 nm on channel Fl-2.

[6] = tested on: A-549 (human pulmonary adenocarcinoma); assay: Inhibition of cell proliferation (MTT), A-549; type: cell-based; conditions: 48 h of treatment (footnote), average ±SD of three experiments
From the text: as §1
as §2, with “Switzerland). […]” for “Switzerland).”

[7] = tested on: hTERT gene; assay: hTERT gene expression by RT-qPCR in HT-29 cells; type: cell-based, human; conditions: Homo sapiens, HT-29, 48 h, 1.5 nM, control 100
Procedure: (§4) The effect on the expression of VEGF, hTERT and c-Myc genes has been studied for CA-4 and its derivatives that show selectivity indexes higher than 0.9 on the HT-29 cell line. The studied derivatives, together with the concentrations to which they have been tested, are CA-4 (15 μM); 4.1 (Gly, 5 μM); 4.5 (L-Pro, 25 μM); 4.9 (L-Met, 25 μM); 6.2 (D-Leu, 25 μM); 6.3 (D-Phe, 25 μM); 6.4 (D-Pro, 25 μM) and 6.5 (D-Ser, 10 μM). The expression of the genes was determined by RT-qPCR methodology, as described in the Materials and Methods section.
(§5) As regards AmCA-4 derivatives, the effect on the expression of the VEGF, hTERT and c-Myc genes has been studied on those that show IC50 in the low nanomolar range on the HT-29 cell line and/or on compounds whose selectivity indexes with respect to this cell line are higher than 1. The studied compounds, together with the concentrations to which they have been tested, are: CA-4 (15 μM), AmCA-4 (15 nM), 7.1 (7 nM), 7.2 (1.5 nM), 7.3 (4 nM), 7.4 (15 nM), 7.5 (2 nM), 7.7 (7 nM), 7.8 (15 nM), 7.9 (30 nM), 8.1 (7 nM), 8.2 (3 nM), 8.3 (10 nM), 8.4 (1.5 nM), 8.5 (4 nM), 8.7 (7 nM), 8.8 (3 nM) and 8.9 (4 nM).
(§6) HT-29 cells at 70–80% confluence were collected, and 1.5 × 10^5 cells were placed in a six-well plate in 1.5 mL of the medium. After 24 h, cells were incubated with the corresponding compounds for 48 h. Cells were collected, and the total cellular RNA from the HT-29 cells was isolated using an Ambion RNA Extraction Kit, according to the manufacturer’s instructions. The cDNA was synthesized by MMLV-RT with […] of extracted RNA and oligo(dT)15, according to the manufacturer’s instructions. Genes were amplified by a thermal cycler and StepOnePlus™ TaqMan® probes. TaqMan® Gene Expression Master Mix Fast, containing the appropriate buffer for the amplification conditions, dNTPs, thermostable DNA polymerase enzyme and a passive reference probe, was used. To amplify each of the genes, the predesigned primers sold by Life Technologies TaqMan® Gene Expression Assays Hs99999903-m1 (β-actin), Hs00900055-m1 (VEGF), Hs00972646-m1 (hTERT) and Hs00153408-m1 (c-Myc) were used.

[8] = tested on: c-Myc gene; assay: c-Myc gene expression by RT-qPCR in HT-29 cells; type: cell-based, human; conditions: HT-29, 48 h
Procedure: as §4, §5, §6

[9] = tested on: VEGF gene; assay: VEGF gene expression by RT-qPCR in HT-29 cells; type: cell-based, human; conditions: HT-29, 48 h
Procedure: as §4, §5, §6

[10] = concentration per compound as in Tables 6 and 7
[11] = Homo sapiens, A549, 48 h, Table 1
[12] = discussion, concentration per compound
[13] = Homo sapiens, 1.5 nM, control 100
[14] = Homo sapiens, A549, 48 h, Table 2

IC50 ([1]; MCF7, Table 1) | IC50 ([4]; HT-29, Table 1) | IC50 [6, 11] | Compound | IC50 ([2]; HEK293, Table 1) | CrC (critical concentration) [3] | Effect on the cell cycle [5, 10] | G0/G1 ([5]; 75 μM) | G2/M ([5]; 75 μM) | S ([5]; 75 μM) | also measured
24 ± 2 µM | 48 ± 5 µM | 50 ± 10 µM | COC(=O)[C@@H]1CCCN1C(=O)COc1cc(/C=C\c2cc(OC)c(OC)c(OC)c2)ccc1OC [Compound 3.5] | 20 ± 1 µM | 10.4 ± 2.0 µM | do not exert any significant effect on the cells |  |  |  | G0/G1 ([5]; 100 μM): 77 ± 2%; G2/M ([5]; 100 μM): 7 ± 1%; S ([5]; 100 μM): 16 ± 2%
10 ± 3 µM | 16 ± 7 µM | < 10 µM | COC(=O)[C@H](CCSC)NC(=O)COc1cc(/C=C\c2cc(OC)c(OC)c(OC)c2)ccc1OC [Compound 3.9] | 8 ± 1 µM | 8.06 ± 0.04 µM |  | 47 ± 4% | 36 ± 1% | 17 ± 3% | IC50 ([6]; Table 1): 10 ± 2 µM
46 ± 3 µM | 45 ± 5 µM | 54 ± 7 µM | COc1ccc(/C=C\c2cc(OC)c(OC)c(OC)c2)cc1OCC(=O)N[C@@H](C(=O)O)C(C)C [Compound 6.1] | 39 ± 6 µM | 9.4 ± 1.3 µM | do not exert any significant effect on the cells |  |  |  | G0/G1 ([5]; 100 μM): 67 ± 2%; G2/M ([5]; 100 μM): 13 ± 1%; S ([5]; 100 μM): 20 ± 2%

More lines, now with the values behind:

Compound | IC50 ([1]; MCF7, Table 1) | IC50 ([4]; HT-29, Table 1) | IC50 [6, 11] | IC50 ([2]; HEK293, Table 1) | CrC (critical concentration) [3] | Effect on the cell cycle [5, 10] | G0/G1 ([5]; 75 μM) | G2/M ([5]; 75 μM) | S ([5]; 75 μM) | also measured
COc1ccc(/C=C\c2cc(OC)c(OC)c(OC)c2)cc1OCC(=O)N1CCC[C@H]1C(=O)O [Compound 4.5] |  |  | 110 ± 10 µM |  | 9.2 ± 0.5 µM | do not exert any significant effect on the cells | 72% | 16% | 12% | IC50 ([1]; MCF7, 48 h, Table 1): 83 ± 16 µM; IC50 ([2]; HEK293, 48 h, Table 1): 45 ± 16 µM; IC50 ([4]; HT-29, 48 h, Table 1): 26 ± 13 µM
COC(=O)[C@H]1CCCN1C(=O)COc1cc(/C=C\c2cc(OC)c(OC)c(OC)c2)ccc1OC [Compound 5.4] | 10 ± 4 µM | 50 µM | 15 ± 1 µM | 5.7 ± 0.8 µM | 9 ± 3 µM |  | 36 ± 4% | 50 ± 1% | 14 ± 3% | 
COC(=O)[C@@H](CO)NC(=O)COc1cc(/C=C\c2cc(OC)c(OC)c(OC)c2)ccc1OC [Compound 5.5] |  |  | 28 ± 1 µM |  | 9.2 ± 0.9 µM |  |  |  |  | IC50 ([1]; MCF7, 48 h, Table 1): 7 ± 2 µM; IC50 ([2]; HEK293, 48 h, Table 1): 9 ± 3 µM; IC50 ([4]; HT-29, 48 h, Table 1): 11 ± 2 µM; cells accumulated in the G2/M phase ([5]; concentration per compound as in Tables 6 and 7, control 14%): 50–70%
COc1ccc(/C=C\c2cc(OC)c(OC)c(OC)c2)cc1NC(=O)[C@H](C)NC(=O)OCC1c2ccccc2-c2ccccc21 [Compound 7.2] |  |  |  |  | 9.4 ± 0.3 µM |  |  |  |  | mrna remaining at 0.0015 µM [7]: 79%; downregulation of c-Myc gene expression [8, 12]: more than 60%; mrna remaining at 0.0015 µM [8, 13]: 22%; downregulation of VEGF gene expression [9, 12]: more than 60%; mrna remaining at 0.0015 µM [9, 13]: 25%; G0/G1 ([5]; 0.5 µM): 28 ± 1%; G2/M ([5]; 0.5 µM): 53 ± 2%; S ([5]; 0.5 µM): 19 ± 2%; IC50 [6, 14]: 0.242 ± 0.013 µM
COc1ccc(/C=C\c2cc(OC)c(OC)c(OC)c2)cc1NC(=O)[C@H](N)CC(C)C [Compound 10.2] |  |  |  |  | 7.0 ± 0.5 µM | do not accumulate a high percentage of cells in phase G2/M |  |  |  | IC50 ([1]; MCF7, 48 h, Table 2): 2 ± 0.9 µM; IC50 ([2]; HEK293, 48 h, Table 2): 0.43 ± 0.04 µM; IC50 ([4]; HT-29, 48 h, Table 2): 1.05 ± 0.14 µM; G0/G1 ([5]; 0.5 µM): 63 ± 4%; G2/M ([5]; 0.5 µM): 22 ± 2%; S ([5]; 0.5 µM): 16 ± 3%; IC50 [6, 14]: 0.157 ± 0.007 µM
